Measured values taken from patent US20210254272A1, “TEXTILES HAVING ANTIMICROBIAL PROPERTIES” (Livinguard AG, priority 2015, published 2021).

Experiment: Leaching test: 100 g fabric soaked in 10 liters stagnant distilled water, 3 days (72 hours)
Type: physicochemical
Details: for Leaching of active ingredients: exhaust 80° C. 60 min, cured 180° C. 2 min, post wash
In short: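 Test and control fabrics were soaked together in a closed jar. Leached substances in the water were then determined by standard analytical methods.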

In the case of `CCCC1COC(Cn2cncn2)(c2ccc(Cl)cc2Cl)O1` (centres unmarked) [Propiconazole, propiconazole], the “Leaching of active ingredients (in ppm)” value (0.2% each in mixture (o.w.f), exhaust 80° C., 60 min, curing 180° C., 2 min, unwashed) was 4 ppm, the “Leaching of active ingredients (in ppm)” value (0.5% each in mixture (o.w.f), exhaust 80° C., 60 min, curing 180° C., 2 min, unwashed) was 6 ppm and the “Leaching of active ingredients (in ppm)” value (1.0% each in mixture (o.w.f), exhaust 80° C., 60 min, curing 180° C., 2 min, unwashed) was 8 ppm. It also gave a Leeching in ppm (Exhaust + Wash + pad + Wash, exhaust 0.1% o.w.f. each in mixture, 1 gm/liter pad) of 0.5 ppm, a Leeching in ppm (Exhaust + Wash + pad + Wash, exhaust 0.1% o.w.f. each in mixture, 5 gm/liter pad) of 0.7 ppm and a Leeching in ppm (Exhaust + Wash + pad + Wash, exhaust 0.1% o.w.f. each in mixture, 10 gm/liter pad) of 0.6 ppm. The Leeching in ppm (Exhaust + Wash + pad + Wash, exhaust 0.25% o.w.f. each in mixture, 1 gm/liter pad) was 7 ppm, the Leeching in ppm (Exhaust + Wash + pad + Wash, exhaust 0.25% o.w.f. each in mixture, 5 gm/liter pad) was 7 ppm and the Leeching in ppm (Exhaust + Wash + pad + Wash, exhaust 0.25% o.w.f. each in mixture, 10 gm/liter pad) was 20 ppm. It also gave a Leeching in ppm (Exhaust + Wash + pad + Wash, exhaust 0.5 (% o.w.f) each in mixture, 1 gm/liter pad) of 5 ppm, a Leeching in ppm (Exhaust + Wash + pad + Wash, exhaust 0.5 (% o.w.f) each in mixture, 5 gm/liter pad) of 15 ppm and a Leeching in ppm (Exhaust + Wash + pad + Wash, exhaust 0.5 (% o.w.f) each in mixture, 10 gm/liter pad) of 26 ppm. For the same compound, the Leeching in ppm (Exhaust + Wash + pad + Wash, exhaust 1.0% o.w.f. each in mixture, 1 gm/liter pad) was 10 ppm, the Leeching in ppm (Exhaust + Wash + pad + Wash, exhaust 1.0% o.w.f. each in mixture, 5 gm/liter pad) was 19 ppm and the Leeching in ppm (Exhaust + Wash + pad + Wash, exhaust 1.0% o.w.f. each in mixture, 10 gm/liter pad) was 34 ppm. The Leeching in ppm (Exhaust + pad + Wash, exhaust 0.1% o.w.f. each in mixture, 1 gm/liter pad) was 149 ppm, the Leeching in ppm (Exhaust + pad + Wash, exhaust 0.1% o.w.f. each in mixture, 5 gm/liter pad) was 241 ppm and the Leeching in ppm (Exhaust + pad + Wash, exhaust 0.1% o.w.f. each in mixture, 10 gm/liter pad) was 256 ppm. It also gave a Leeching in ppm (Exhaust + pad + Wash, exhaust 0.25% o.w.f. each in mixture, 1 gm/liter pad) of 231 ppm, a Leeching in ppm (Exhaust + pad + Wash, exhaust 0.25% o.w.f. each in mixture, 5 gm/liter pad) of 259 ppm and a Leeching in ppm (Exhaust + pad + Wash, exhaust 0.25% o.w.f. each in mixture, 10 gm/liter pad) of 546 ppm. For the same compound, the Leeching in ppm (Exhaust + pad + Wash, exhaust 0.5 (% o.w.f) each in mixture, 1 gm/liter pad) was 475 ppm, the Leeching in ppm (Exhaust + pad + Wash, exhaust 0.5 (% o.w.f) each in mixture, 5 gm/liter pad) was 538 ppm and the Leeching in ppm (Exhaust + pad + Wash, exhaust 0.5 (% o.w.f) each in mixture, 10 gm/liter pad) was 649 ppm. For the same compound, the Leeching in ppm (Exhaust + pad + Wash, exhaust 1.0% o.w.f. each in mixture, 1 gm/liter pad) was 578 ppm, the Leeching in ppm (Exhaust + pad + Wash, exhaust 1.0% o.w.f. each in mixture, 5 gm/liter pad) was 689 ppm and the Leeching in ppm (Exhaust + pad + Wash, exhaust 1.0% o.w.f. each in mixture, 10 gm/liter pad) was 853 ppm. For the same compound, the Leeching in ppm (Exhaust + pad, exhaust 0.1% o.w.f. each in mixture, 1 gm/liter pad) was 194 ppm, the Leeching in ppm (Exhaust + pad, exhaust 0.1% o.w.f. each in mixture, 5 gm/liter pad) was 284 ppm and the Leeching in ppm (Exhaust + pad, exhaust 0.1% o.w.f. each in mixture, 10 gm/liter pad) was 345 ppm. For the same compound, the Leeching in ppm (Exhaust + pad, exhaust 0.25% o.w.f. each in mixture, 1 gm/liter pad) was 317 ppm, the Leeching in ppm (Exhaust + pad, exhaust 0.25% o.w.f. each in mixture, 5 gm/liter pad) was 346 ppm and the Leeching in ppm (Exhaust + pad, exhaust 0.25% o.w.f. each in mixture, 10 gm/liter pad) was 354 ppm. It also gave a Leeching in ppm (Exhaust + pad, exhaust 0.5 (% o.w.f) each in mixture, 1 gm/liter pad) of 365 ppm, a Leeching in ppm (Exhaust + pad, exhaust 0.5 (% o.w.f) each in mixture, 5 gm/liter pad) of 456 ppm and a Leeching in ppm (Exhaust + pad, exhaust 0.5 (% o.w.f) each in mixture, 10 gm/liter pad) of 867 ppm. The Leeching in ppm (Exhaust + pad, exhaust 1.0% o.w.f. each in mixture, 1 gm/liter pad) was 596 ppm, the Leeching in ppm (Exhaust + pad, exhaust 1.0% o.w.f. each in mixture, 5 gm/liter pad) was 810 ppm and the Leeching in ppm (Exhaust + pad, exhaust 1.0% o.w.f. each in mixture, 10 gm/liter pad) was 1456 ppm. It also gave a Leeching in ppm (Exhaust +Wash + pad, exhaust 0.1% o.w.f. each in mixture, 1 gm/liter pad) of 89 ppm, a Leeching in ppm (Exhaust +Wash + pad, exhaust 0.1% o.w.f. each in mixture, 5 gm/liter pad) of 154 ppm and a Leeching in ppm (Exhaust +Wash + pad, exhaust 0.1% o.w.f. each in mixture, 10 gm/liter pad) of 232 ppm. It also gave a Leeching in ppm (Exhaust +Wash + pad, exhaust 0.25% o.w.f. each in mixture, 1 gm/liter pad) of 184 ppm, a Leeching in ppm (Exhaust +Wash + pad, exhaust 0.25% o.w.f. each in mixture, 5 gm/liter pad) of 215 ppm and a Leeching in ppm (Exhaust +Wash + pad, exhaust 0.25% o.w.f. each in mixture, 10 gm/liter pad) of 321 ppm. The Leeching in ppm (Exhaust +Wash + pad, exhaust 0.5 (% o.w.f) each in mixture, 1 gm/liter pad) was 369 ppm, the Leeching in ppm (Exhaust +Wash + pad, exhaust 0.5 (% o.w.f) each in mixture, 5 gm/liter pad) was 413 ppm and the Leeching in ppm (Exhaust +Wash + pad, exhaust 0.5 (% o.w.f) each in mixture, 10 gm/liter pad) was 578 ppm. It also gave a Leeching in ppm (Exhaust +Wash + pad, exhaust 1.0% o.w.f. each in mixture, 1 gm/liter pad) of 469 ppm, a Leeching in ppm (Exhaust +Wash + pad, exhaust 1.0% o.w.f. each in mixture, 5 gm/liter pad) of 574 ppm and a Leeching in ppm (Exhaust +Wash + pad, exhaust 1.0% o.w.f. each in mixture, 10 gm/liter pad) of 657 ppm. The “Leaching of active ingredients (in ppm)” value (exhaust 60° C., solution dosage 1% o.w.f, process time 60 min) was 24 ppm, the “Leaching of active ingredients (in ppm)” value (exhaust 60° C., solution dosage 1% o.w.f, process time 90 min) was 12 ppm and the “Leaching of active ingredients (in ppm)” value (exhaust 60° C., solution dosage 1% o.w.f, process time 120 min) was 13 ppm. For the same compound, the “Leaching of active ingredients (in ppm)” value (exhaust 60° C., solution dosage 1% o.w.f, process time 180 min) was 13 ppm, the “Leaching of active ingredients (in ppm)” value (exhaust 60° C., solution dosage 1% o.w.f, process time 240 min) was 15 ppm and the “Leaching of active ingredients” value (mixture 0.2% o.w.f. each) was 0.3 ppm. The “Leaching of active ingredients” value (mixture 0.5% o.w.f. each) was 0.3 ppm, the “Leaching of active ingredients” value (mixture 1% o.w.f. each) was 0.9 ppm and the “Leaching of active ingredients (in ppm)” value (exhaust 80° C., 1% o.w.f, 60 min, curing 170° C., curing dwell time 0.5 min) was 28 ppm. For the same compound, the “Leaching of active ingredients (in ppm)” value (exhaust 80° C., 1% o.w.f, 60 min, curing 170° C., curing dwell time 1.0 min) was 24 ppm, the “Leaching of active ingredients (in ppm)” value (exhaust 80° C., 1% o.w.f, 60 min, curing 170° C., curing dwell time 1.5 min) was 21 ppm and the “Leaching of active ingredients (in ppm)” value (exhaust 80° C., 1% o.w.f, 60 min, curing 170° C., curing dwell time 2.0 min) was 15 ppm. For the same compound, the “Leaching of active ingredients (in ppm)” value (exhaust 80° C., 1% o.w.f, 60 min, curing 170° C., curing dwell time 2.5 min) was 17 ppm, the “Leaching of active ingredients (in ppm)” value (exhaust 80° C., 1% o.w.f, 60 min, curing 170° C., curing dwell time 3.0 min) was 17 ppm and the “Leaching of active ingredients (in ppm)” value (exhaust 80° C., 1% o.w.f, 60 min, curing 180° C., curing dwell time 0.5 min) was 24 ppm. For the same compound, the “Leaching of active ingredients (in ppm)” value (exhaust 80° C., 1% o.w.f, 60 min, curing 180° C., curing dwell time 1.0 min) was 12 ppm, the “Leaching of active ingredients (in ppm)” value (exhaust 80° C., 1% o.w.f, 60 min, curing 180° C., curing dwell time 1.5 min) was 13 ppm and the “Leaching of active ingredients (in ppm)” value (exhaust 80° C., 1% o.w.f, 60 min, curing 180° C., curing dwell time 2.0 min) was 3 ppm. For the same compound, the “Leaching of active ingredients (in ppm)” value (exhaust 80° C., 1% o.w.f, 60 min, curing 180° C., curing dwell time 2.5 min) was 13 ppm, the “Leaching of active ingredients (in ppm)” value (exhaust 80° C., 1% o.w.f, 60 min, curing 180° C., curing dwell time 3.0 min) was 13 ppm and the “Leaching of active ingredients (in ppm)” value (exhaust 80° C., 1% o.w.f, 60 min, curing dwell time at 190° C. (title): 0.5 min) was 23 ppm. The “Leaching of active ingredients (in ppm)” value (exhaust 80° C., 1% o.w.f, 60 min, curing dwell time at 190° C. (title): 1.0 min) was 12 ppm, the “Leaching of active ingredients (in ppm)” value (exhaust 80° C., 1% o.w.f, 60 min, curing dwell time at 190° C. (title): 1.5 min) was 12 ppm and the “Leaching of active ingredients (in ppm)” value (exhaust 80° C., 1% o.w.f, 60 min, curing dwell time at 190° C. (title): 2.0 min) was 10 ppm. The “Leaching of active ingredients (in ppm)” value (exhaust 80° C., 1% o.w.f, 60 min, curing dwell time at 190° C. (title): 2.5 min) was 27 ppm and the “Leaching of active ingredients (in ppm)” value (exhaust 80° C., 1% o.w.f, 60 min, curing dwell time at 190° C. (title): 3.0 min) was 34 ppm.
